13 compounds from ChEMBL document CHEMBL1139498, “Discovery of potent, orally available vanilloid receptor-1 antagonists. Structure-activity relationship of N-aryl cinnamides” (J Med Chem, 2005) can be followed below.

Series [1] addresses T1, Transient receptor potential cation channel subfamily V member 1 (Homo sapiens, UniProt Q8NER1). Briefly: Inhibition of pH-induced calcium uptake by transient receptor potential vanilloid type 1 expressed in CHO cells. It is filed as functional, cell-based.
The nature of series [2]: Area under concentration time curve from time 0 to infinity was determined in rat after oral administration of 5 mg/kg. Format: ADME, organism-based. Further details: time infinity, dose 5 mg/kg, route oral. The conditions noted are these: in vivo.
Series [3] is described as follows: Peak plasma concentration in rat after oral administration of 5 mg/kg. Also on record: dose 5 mg/kg, route oral. It is filed as ADME, organism-based.
A short description of series [4]: Plasma clearance in rat after intravenous administration of 2 mg/kg. It is filed as ADME, organism-based. Further details: dose 2 mg/kg, route intravenous.
A short description of series [5]: Maximum time required to attain Cmax in rat after oral administration of 5 mg/kg. It is filed as ADME, organism-based. Further details: dose 5 mg/kg, route oral. The conditions noted are these: in vivo.
A short description of series [6]: Oral bioavailability in rat (dose 5 mg/kg). Conditions: in vivo. Format: ADME, organism-based.
Series [7] in a line: Half life in rat after intravenous administration of 2 mg/kg. Format: ADME, organism-based. Also on record: dose 2 mg/kg, route intravenous. The conditions noted are these: in vivo.
Series [8] can be described thus: Steady state volume of distribution in rat after intravenous administration of 2 mg/kg. It is filed as ADME, organism-based. Further details: dose 2 mg/kg, route intravenous. The conditions noted are these: in vivo, read-out: Vss.
Series [9] is described as follows: Area under concentration time curve from time 0 to infinity was determined in rat after intravenous administration of 2 mg/kg. Format: ADME, organism-based. Also on record: time infinity, dose 2 mg/kg, route intravenous. The conditions noted are these: in vivo.
In series [10] the target is T1, Transient receptor potential cation channel subfamily V member 1. Briefly: Inhibition of capsaicin-induced calcium uptake by transient receptor potential vanilloid type 1 expressed in CHO cells. It is filed as functional, cell-based.
Series [11] has the same target. Briefly: Agonistic activity for transient receptor potential vanilloid type 1 expressed in CHO cells. Format: functional, cell-based.
Series [12] is described as follows: Steady state volume of distribution in rat after intravenous administration of 3 mg/kg. Format: ADME, organism-based. Further details: dose 3 mg/kg, route intravenous. The conditions noted are these: in vivo, read-out: Vss.
Series [13] in a line: Half life in rat after intravenous administration of 3 mg/kg. It is filed as ADME, organism-based. Also on record: dose 3 mg/kg, route intravenous. Conditions: in vivo.
A short description of series [14]: Area under concentration time curve from time 0 to infinity was determined in rat after intravenous administration of 3 mg/kg. Format: ADME, organism-based. Further details: time infinity, dose 3 mg/kg, route intravenous. The conditions noted are these: in vivo.
The nature of series [15]: Plasma clearance in rat after intravenous administration of 3 mg/kg. It is filed as ADME, organism-based. Also on record: dose 3 mg/kg, route intravenous.

SMILES strings stand for the structures.

T1 sequence (Q8NER1 whole entry): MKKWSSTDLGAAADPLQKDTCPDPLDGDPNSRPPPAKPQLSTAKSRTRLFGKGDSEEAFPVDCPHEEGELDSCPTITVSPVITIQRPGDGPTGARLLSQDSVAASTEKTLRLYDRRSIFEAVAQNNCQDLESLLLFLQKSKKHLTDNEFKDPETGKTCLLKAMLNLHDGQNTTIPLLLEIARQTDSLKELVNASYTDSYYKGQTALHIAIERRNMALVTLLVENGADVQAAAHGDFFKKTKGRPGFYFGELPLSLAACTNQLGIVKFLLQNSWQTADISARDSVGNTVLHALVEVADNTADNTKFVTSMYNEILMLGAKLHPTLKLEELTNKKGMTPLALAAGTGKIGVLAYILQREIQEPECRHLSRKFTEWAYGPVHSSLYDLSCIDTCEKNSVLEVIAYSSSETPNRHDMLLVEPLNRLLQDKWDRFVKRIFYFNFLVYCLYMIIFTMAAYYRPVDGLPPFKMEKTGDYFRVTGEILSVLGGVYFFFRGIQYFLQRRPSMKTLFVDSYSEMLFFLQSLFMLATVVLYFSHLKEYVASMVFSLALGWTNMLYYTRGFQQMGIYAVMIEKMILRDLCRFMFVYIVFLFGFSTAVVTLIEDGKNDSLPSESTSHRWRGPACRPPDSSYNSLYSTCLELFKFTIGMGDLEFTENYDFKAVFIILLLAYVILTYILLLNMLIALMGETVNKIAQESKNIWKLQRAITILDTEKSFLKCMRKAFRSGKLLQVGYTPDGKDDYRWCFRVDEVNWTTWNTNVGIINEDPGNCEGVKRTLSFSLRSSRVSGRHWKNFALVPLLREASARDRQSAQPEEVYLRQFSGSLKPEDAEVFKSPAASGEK

The IC50 is the concentration needed to halve the response being measured. By AUC is commonly meant concentration integrated over time. Broadly, the Cmax is the peak of the concentration-time curve. Usually Tmax stands for the time at which the peak concentration occurs. As usually defined, the half-life is the time needed for the level to fall by half in the phase considered. Higher therefore signals slow decline. As to `O=C(/C=C/c1ccc(C(F)(F)F)nc1N1CCCCC1)Nc1ccc2cccnc2c1`, the IC50 was determined as 0.001 µM in series [1] and 0.00042 µM in series [10]. In addition, the values for the AUC in series [2] and in series [9] were 2400 ng·h/mL and 2100 ng·h/mL, respectively. Moreover, the Cmax in series [3] came to 320 ng/mL. In addition, in series [4] (in vivo), the CL was determined as 13 mL/min/kg. Further, the Tmax in [5] stood at 2 h. This compound displayed a F in [6] of 17%. In series [7], this compound had a half-life of 2.9 h. Besides, the Vd in series [8] was determined as 2.8 L/kg.
For orientation: EC50 means the concentration needed to bring the measured effect to its halfway point. A lower EC50 goes with an effect from little substance. `COc1cc(NC(=O)/C=C/c2ccc(C(C)(C)C)cc2)ccc1O`: in series [11], the EC50 came to 0.44 µM.
Broadly, the AUC(0-inf) is the area under the concentration-time curve extrapolated to infinity. Lower therefore signals low exposure. A word on the clearance: it is a measure of how efficiently the substance is removed, as volume per time. A higher clearance goes with efficient removal. By bioavailability is commonly meant dose-corrected exposure relative to a reference, in per cent. A low value points to poor availability. In the case of `O=C(/C=C/c1ccc(C(F)(F)F)nc1N1CCOCC1)Nc1ccc2cccnc2c1`, the IC50 in [1] was determined as 0.0013 µM; in series [10] it was 0.0019 µM. This compound also yielded an AUC(0-inf) in series [2] of 2600 ng·h/mL. This compound also displayed a Cmax in series [3] of 540 ng/mL. The clearance in [4] (plasma) was 15 mL/min/kg. Also, the Tmax in series [5] worked out at 1.5 h. Besides, the bioavailability in series [6] turned out to be 39%. Further, the half-life in series [7] is 0.9 h. The Vd in series [8] turned out to be 1.1 L/kg. Further, the AUC in series [9] was found to be 2300 ng·h/mL.
Consider `O=C(/C=C/c1ccc(Cl)cc1)Nc1ccc2c(c1)OCCO2`, for which the IC50 in series [1] was 0.32 µM; in [10], 0.25 µM.
As for `CC(C)(C)c1ccc(/C(=C/C(=O)Nc2ccc3c(c2)OCCO3)CCC(=O)O)cc1`, the IC50 in series [1] and in series [10] was greater than 4 µM throughout.
Take `CC(C)(C)c1ccc(/C=C/C(=O)Nc2ccc3c(c2)OCCO3)cc1` (stereo in doubt; 1): the IC50 was determined as 0.15 µM in series [1] and 0.017 µM in series [10]. The AUC(0-inf) in series [2] is 24 ng·h/mL. This compound also registered a Cmax in series [3] of 25 ng/mL. The Vd in [12] was 2.1 L/kg. Also, the Tmax in [5] stood at 0.5 h. The compound further showed a half-life in series [13] of 1.1 h. In [6], this compound gave a bioavailability of 3%. In addition, in [14], the AUC amounted to 680 ng·h/mL. In series [15], this compound had a clearance of 73.3 mL/min/kg.
Consider `COc1ccc(/C=C/C(=O)Nc2ccc3c(c2)OCCO3)cc1`, for which the IC50 is greater than 4 µM in series [1] and 1.8 µM in [10].
On the same counts, the results for `CC(C)(C)c1ccc(C2CC2C(=O)Nc2ccc3c(c2)OCCO3)cc1` (centres undefined) are greater than 4 µM and 1.8 µM.
The like results for `CC(C)(C)c1ccc(C(=CC(=O)Nc2ccc3c(c2)OCCO3)c2ccc(C(C)(C)C)cc2)cc1` were, in that order, greater than 4 µM and 2.7 µM.
The like results for `CC(C)(C)c1ccc(/C=C/C(=O)Nc2ccc3c(c2)OCCN3)cc1` were, in that order, 0.057 µM and 0.016 µM.
On to `O=C(/C=C/c1ccccc1)Nc1ccc2c(c1)OCCO2`, for which the IC50 in [1] and in [10] was greater than 4 µM throughout.
On to `CN(C(=O)/C=C/c1ccc(C(C)(C)C)cc1)c1ccc2c(c1)OCCO2`, for which the IC50 in [1] and in [10] was greater than 4 µM in each case.
As for `CC(C)(C)c1ccc(/C=C/C(=O)Nc2ccc3c(c2)NCCC3)cc1`, the results for the IC50 in [1] and in [10] were 0.16 µM and 0.036 µM, respectively.
